Laboratory results taken from ChEMBL document CHEMBL1201862, “PubChem BioAssay data set” (2004).
Calls of active or inactive are those of the source.

Key:
Genome polyprotein = Genome polyprotein (dengue virus type 2, UniProt P29990); experiment: Dengue-2 NS5 methyltransferase inhibitors, primary screen, biochemical, confirmation dose response (AID 588689); type: functional
Protein skinhead-1 = target: T1, Protein skinhead-1 (Caenorhabditis elegans, UniProt P34707); type: functional
T1 sequence (P34707 whole entry): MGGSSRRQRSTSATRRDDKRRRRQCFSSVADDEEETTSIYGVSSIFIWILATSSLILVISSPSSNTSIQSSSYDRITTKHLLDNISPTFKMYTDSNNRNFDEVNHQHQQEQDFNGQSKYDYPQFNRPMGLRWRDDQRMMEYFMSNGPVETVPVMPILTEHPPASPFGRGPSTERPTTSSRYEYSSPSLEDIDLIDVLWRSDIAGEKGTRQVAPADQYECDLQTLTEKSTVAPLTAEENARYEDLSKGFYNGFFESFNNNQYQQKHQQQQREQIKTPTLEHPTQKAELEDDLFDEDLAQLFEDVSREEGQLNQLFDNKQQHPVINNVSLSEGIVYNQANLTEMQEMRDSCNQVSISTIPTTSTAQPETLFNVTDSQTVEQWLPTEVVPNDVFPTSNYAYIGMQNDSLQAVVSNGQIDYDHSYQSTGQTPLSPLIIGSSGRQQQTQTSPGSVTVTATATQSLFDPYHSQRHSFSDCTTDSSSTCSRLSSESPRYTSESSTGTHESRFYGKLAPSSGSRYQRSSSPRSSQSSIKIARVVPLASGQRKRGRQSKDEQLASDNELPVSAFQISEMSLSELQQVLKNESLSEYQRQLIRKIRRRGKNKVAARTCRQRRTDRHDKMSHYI

[1] = target: DNA dC->dU-editing enzyme APOBEC-3A (Homo sapiens, UniProt P31941); experiment: Dose Response confirmation of small molecule APOBEC3A DNA Deaminase Inhibitors via a fluorescence-based single-stranded DNA deaminase assay. [Related pubchem assays (depositor defined):AID493011, AID493024]; type: functional
Sequence of DNA dC->dU-editing enzyme APOBEC-3A (P31941 whole entry): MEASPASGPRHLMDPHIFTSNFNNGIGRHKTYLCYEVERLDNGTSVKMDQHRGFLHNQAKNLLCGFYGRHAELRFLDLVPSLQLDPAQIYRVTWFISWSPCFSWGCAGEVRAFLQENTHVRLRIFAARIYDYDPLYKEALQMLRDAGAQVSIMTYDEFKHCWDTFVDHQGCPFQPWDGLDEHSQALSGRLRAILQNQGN

[2] = target: T2, DNA dC->dU-editing enzyme APOBEC-3G (Homo sapiens, UniProt Q9HC16); type: functional
T2 sequence (Q9HC16 whole entry): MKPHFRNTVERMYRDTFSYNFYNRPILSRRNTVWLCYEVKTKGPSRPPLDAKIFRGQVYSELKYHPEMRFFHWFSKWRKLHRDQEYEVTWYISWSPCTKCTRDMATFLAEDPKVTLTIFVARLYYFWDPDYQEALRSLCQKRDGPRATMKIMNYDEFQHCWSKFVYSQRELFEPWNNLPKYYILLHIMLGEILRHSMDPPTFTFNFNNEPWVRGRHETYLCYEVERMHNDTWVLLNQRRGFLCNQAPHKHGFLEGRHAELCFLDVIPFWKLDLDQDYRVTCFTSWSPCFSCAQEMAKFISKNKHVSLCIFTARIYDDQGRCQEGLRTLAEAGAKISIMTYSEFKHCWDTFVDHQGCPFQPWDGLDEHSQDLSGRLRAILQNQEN

HeLa = experiment: HeLa cell cytotoxicity, dose response, cytotoxicity control for MITF activator project, CellTiter-Glo luminescence, cherry-pick samples (AID 540259); type: functional, cell-based; conditions: Homo sapiens
[3] = A cytotoxicity screen of small molecule inhibitors of the PhoP region in Salmonella typhi identified in the primary screen. [Related pubchem assays: 1850, 1864, 1985 ]; type: functional
[4] = target: Induced myeloid leukemia cell differentiation protein Mcl-1 (Homo sapiens, UniProt Q07820); type: functional
Sequence of Induced myeloid leukemia cell differentiation protein Mcl-1 (Q07820 whole entry): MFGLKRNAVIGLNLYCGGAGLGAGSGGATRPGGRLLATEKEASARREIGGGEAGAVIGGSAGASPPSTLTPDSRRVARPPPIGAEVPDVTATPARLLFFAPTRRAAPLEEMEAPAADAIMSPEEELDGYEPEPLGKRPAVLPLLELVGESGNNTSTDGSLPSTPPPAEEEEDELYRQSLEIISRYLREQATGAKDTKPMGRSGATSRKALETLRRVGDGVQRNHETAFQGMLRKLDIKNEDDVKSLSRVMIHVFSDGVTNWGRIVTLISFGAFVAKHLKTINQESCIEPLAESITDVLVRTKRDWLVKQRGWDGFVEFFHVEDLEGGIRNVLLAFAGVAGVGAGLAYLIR

[5] = target: Heat shock protein HSP 90-alpha (Homo sapiens, UniProt P07900); type: functional, organism-based
[6] = target: T3, RNA-binding protein pos-1 (Caenorhabditis elegans, UniProt G5EF15); experiment: inhibitors of POS-1/mex-3 RNA binding, dose response, biochemical, fluorescence polarization (AID 1964);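 note: purified POS-1 fused to maltose binding protein made in E. coli; potency of compounds blocking POS-1 binding to fluorescent RNA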
T3 sequence (G5EF15 whole entry): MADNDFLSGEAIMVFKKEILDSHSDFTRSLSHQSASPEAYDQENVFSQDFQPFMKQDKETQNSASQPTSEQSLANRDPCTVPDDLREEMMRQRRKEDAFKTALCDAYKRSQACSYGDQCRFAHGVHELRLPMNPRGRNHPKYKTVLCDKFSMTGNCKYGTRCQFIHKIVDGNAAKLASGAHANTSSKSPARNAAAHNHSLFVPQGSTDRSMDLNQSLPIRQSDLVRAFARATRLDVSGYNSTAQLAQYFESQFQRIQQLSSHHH

[7] = target: T4, Zinc finger protein mex-5 (Caenorhabditis elegans, UniProt Q9XUB2); experiment: MEX-5/TCR-2 RNA interaction inhibitors, dose response, biochemical, C. elegans, fluorescence polarization (AID 1960)
T4 sequence (Q9XUB2 whole entry): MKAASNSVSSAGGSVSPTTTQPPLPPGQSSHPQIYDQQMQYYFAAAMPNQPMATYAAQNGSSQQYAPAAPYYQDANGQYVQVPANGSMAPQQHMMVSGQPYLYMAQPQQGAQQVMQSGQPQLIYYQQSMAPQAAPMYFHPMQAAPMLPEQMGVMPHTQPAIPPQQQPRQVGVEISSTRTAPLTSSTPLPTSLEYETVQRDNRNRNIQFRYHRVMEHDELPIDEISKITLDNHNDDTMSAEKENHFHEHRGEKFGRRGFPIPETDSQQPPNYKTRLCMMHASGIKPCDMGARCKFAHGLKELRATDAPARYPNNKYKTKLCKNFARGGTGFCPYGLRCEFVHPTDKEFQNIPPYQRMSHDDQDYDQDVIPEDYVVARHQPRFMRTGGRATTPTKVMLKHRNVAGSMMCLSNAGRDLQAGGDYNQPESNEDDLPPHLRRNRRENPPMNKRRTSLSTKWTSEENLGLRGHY

Large T antigen = Large T antigen (Simian virus 40, UniProt P03070); type: functional, Betapolyomavirus macacae;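 note: Confirmatory-stage PubChem screen for compounds that inhibit SV40 T antigen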
Sequence of Large T antigen (P03070 whole entry, the tested form may be a part): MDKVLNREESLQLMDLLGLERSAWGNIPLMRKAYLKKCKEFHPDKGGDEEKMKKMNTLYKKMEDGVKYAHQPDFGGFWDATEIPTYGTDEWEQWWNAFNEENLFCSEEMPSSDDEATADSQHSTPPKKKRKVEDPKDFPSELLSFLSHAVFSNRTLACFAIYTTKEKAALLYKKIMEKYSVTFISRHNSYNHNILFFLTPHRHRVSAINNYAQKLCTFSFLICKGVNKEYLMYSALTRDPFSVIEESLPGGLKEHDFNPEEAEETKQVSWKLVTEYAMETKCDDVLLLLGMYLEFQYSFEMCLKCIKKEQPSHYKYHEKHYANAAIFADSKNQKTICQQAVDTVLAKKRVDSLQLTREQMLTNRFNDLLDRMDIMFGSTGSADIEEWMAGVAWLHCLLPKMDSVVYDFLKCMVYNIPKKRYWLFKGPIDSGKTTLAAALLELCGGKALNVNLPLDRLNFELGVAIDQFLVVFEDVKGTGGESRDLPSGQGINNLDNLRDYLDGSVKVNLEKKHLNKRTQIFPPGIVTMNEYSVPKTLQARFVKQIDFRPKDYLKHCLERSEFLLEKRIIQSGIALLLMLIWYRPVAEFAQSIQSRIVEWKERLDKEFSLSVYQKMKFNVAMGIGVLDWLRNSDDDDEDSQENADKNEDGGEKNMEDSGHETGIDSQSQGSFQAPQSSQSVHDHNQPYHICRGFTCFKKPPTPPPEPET

[8] = target: T5, Carboxy-terminal domain RNA polymerase II polypeptide A small phosphatase 1 (Homo sapiens, UniProt Q9GZU7); experiment: inhibitors of CTDSP1, concentration-response testing, biochemical assay, absorbance-based, actives from ultra-high-throughput screening (AID 540297); type: functional
T5 sequence (Q9GZU7 whole entry): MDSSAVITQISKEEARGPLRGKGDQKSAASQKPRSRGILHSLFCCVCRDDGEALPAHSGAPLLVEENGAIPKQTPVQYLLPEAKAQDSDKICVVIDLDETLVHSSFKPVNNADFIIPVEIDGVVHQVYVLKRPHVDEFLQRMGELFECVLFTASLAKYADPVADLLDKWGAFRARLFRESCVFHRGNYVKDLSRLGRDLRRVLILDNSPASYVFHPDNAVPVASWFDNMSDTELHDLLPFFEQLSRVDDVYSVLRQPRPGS

[9] = target: T2, DNA dC->dU-editing enzyme APOBEC-3G; experiment: Dose Response confirmation of small molecule APOBEC3G DNA Deaminase Inhibitors via a fluorescence-based single-stranded DNA deaminase assay. [Related pubchem assays (depositor defined):AID493012, AID493028]; type: functional
Fatty acid synthase = Fatty acid synthase (Homo sapiens, UniProt P49327); experiment: FAS thioesterase domain inhibitors, dose response, biochemical, kinetic fluorescence intensity (AID 624326); type: functional;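 note: rate of fluorescence rise from hydrolysis of a fluorogenic O-methyl fluorescein ester substrate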
[10] = Counterscreen for inhibitors of Trypanosoma brucei methionyl tRNA synthetase (MetRS): Luminescence-based cell-based high throughput dose response assay to identify compounds that are cytotoxic to Jurkat human T lymphocyte cells.; type: functional
[11] = Luminescence Cell-Based Dose Confirmation HTS to Identify Activators of 5'UTR Stem-Loop Driven Alpha-Synuclein mRNA Translation in H4 Neuroglioblastoma Cells. [Related pubchem assays: 1829 (Project Summary), 1814 (Primary HTS)]; type: functional
[12] = Luminescence Cell-Based Dose Response HTS to Identify Activators of Luciferase Translation or Activity in H4 […] Cells. [Related pubchem assays: 1829 (Project Summary), 1814 (Primary HTS)]; type: functional
H4 = experiment: Luminescence Cell-Based Dose Response HTS to Identify Activators of 5'UTR Stem-Loop Driven Prion Protein mRNA Translation in H4 Neuroglioblastoma Cells. [Related pubchem assays: 1829 (Project Summary), 1814 (Primary HTS)]; type: functional; conditions: Homo sapiens
[13] = HEp-2 cell cytotoxicity, dose response, cytotoxicity control for RSV inhibitor project, HTS (AID 2410); type: functional; conditions: human respiratory syncytial virus
Nonstructural protein 1 = Nonstructural protein 1 (Influenza A virus, UniProt Q194T2); type: functional, Influenza A virus (A/California/07/2009(H1N1))
Sequence of Nonstructural protein 1 (Q194T2 whole entry, the tested form may be a part): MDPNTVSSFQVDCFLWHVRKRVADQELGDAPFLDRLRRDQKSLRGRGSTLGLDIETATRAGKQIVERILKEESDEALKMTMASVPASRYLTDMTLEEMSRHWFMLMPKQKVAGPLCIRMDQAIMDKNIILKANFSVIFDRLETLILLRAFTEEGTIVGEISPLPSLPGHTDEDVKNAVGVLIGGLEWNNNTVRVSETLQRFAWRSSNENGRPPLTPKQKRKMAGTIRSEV

[14] = inhibitors of clade B AD8 Env fusion, dose response, cell-based, cherry-pick (AID 652062); type: functional;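 note: luciferase signal from cell-cell fusion driven by HIV-1 clade B AD8 Env; potency is for inhibitors of fusion seen as a drop in luminescence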
[15] = NIH:OVCAR-3 ovarian cancer cell cytotoxicity, dose response, PAX8 inhibitor project, plate reader, dry powder samples (AID 743044); type: functional, cell-based
Paired box protein Pax-8 = Paired box protein Pax-8 (Homo sapiens, UniProt Q06710); experiment: inhibitors of PAX8-driven TPO luciferase reporter, dose response, RMG-I cells, cherry-pick (AID 687027); type: functional, cell-based;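 note: luciferase reporter driven by Pax8 target thyroperoxidase promoter measured by SteadyGlo luminescence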
Sequence of Paired box protein Pax-8 (Q06710 whole entry): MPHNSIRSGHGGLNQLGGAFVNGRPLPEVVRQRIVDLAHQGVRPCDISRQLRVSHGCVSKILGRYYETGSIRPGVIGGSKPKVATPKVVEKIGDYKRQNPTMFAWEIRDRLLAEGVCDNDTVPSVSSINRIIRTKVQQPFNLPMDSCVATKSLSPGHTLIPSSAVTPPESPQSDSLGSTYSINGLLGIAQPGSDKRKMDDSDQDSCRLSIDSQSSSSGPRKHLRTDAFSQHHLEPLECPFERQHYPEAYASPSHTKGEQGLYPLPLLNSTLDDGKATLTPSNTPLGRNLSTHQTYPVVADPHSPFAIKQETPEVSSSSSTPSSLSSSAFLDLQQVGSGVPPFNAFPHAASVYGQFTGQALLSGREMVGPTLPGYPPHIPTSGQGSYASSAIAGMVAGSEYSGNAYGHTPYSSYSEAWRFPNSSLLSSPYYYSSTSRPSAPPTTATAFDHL

[16] = cytotoxicity in OVCAR8 ovarian cancer cells, dose response, PAX8 project, cell-based, plate reader, dry powder samples (AID 743197); type: functional; conditions: OVCAR-8
[17] = inhibitors of HIV Env-driven cell fusion, dose response, cherry-pick (AID 652057); type: functional, cell-based

Sequence of Genome polyprotein (P29990 2492-3391 limits assumed): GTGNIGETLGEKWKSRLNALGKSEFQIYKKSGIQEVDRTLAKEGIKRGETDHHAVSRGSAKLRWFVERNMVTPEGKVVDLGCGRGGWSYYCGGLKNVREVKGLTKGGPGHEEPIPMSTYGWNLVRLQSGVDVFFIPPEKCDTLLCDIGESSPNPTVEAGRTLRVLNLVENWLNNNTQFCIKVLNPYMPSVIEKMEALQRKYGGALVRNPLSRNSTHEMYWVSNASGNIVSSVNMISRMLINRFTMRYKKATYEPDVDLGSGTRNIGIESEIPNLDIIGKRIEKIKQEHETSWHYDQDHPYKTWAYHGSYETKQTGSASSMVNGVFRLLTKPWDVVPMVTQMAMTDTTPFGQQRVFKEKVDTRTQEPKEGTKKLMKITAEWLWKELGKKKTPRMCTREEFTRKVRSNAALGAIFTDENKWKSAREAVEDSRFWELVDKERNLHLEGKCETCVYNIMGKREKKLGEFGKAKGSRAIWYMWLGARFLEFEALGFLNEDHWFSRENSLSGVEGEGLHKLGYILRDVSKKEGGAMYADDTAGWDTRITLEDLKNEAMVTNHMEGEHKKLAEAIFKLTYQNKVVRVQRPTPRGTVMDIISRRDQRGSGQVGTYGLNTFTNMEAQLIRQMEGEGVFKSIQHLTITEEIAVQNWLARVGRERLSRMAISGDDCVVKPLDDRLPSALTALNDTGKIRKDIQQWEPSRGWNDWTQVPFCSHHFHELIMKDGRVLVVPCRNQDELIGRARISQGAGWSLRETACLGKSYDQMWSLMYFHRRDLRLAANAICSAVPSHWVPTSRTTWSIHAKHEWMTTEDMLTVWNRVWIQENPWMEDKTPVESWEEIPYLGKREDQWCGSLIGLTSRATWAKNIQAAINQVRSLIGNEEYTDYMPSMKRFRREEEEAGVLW

O=C(O)c1ccccc1-c1ccccc1C(=O)Nc1ccc2c(c1)oc(=O)c1ccccc12
IC50 (Genome polyprotein): 56.3 µM (active)
IC50 (Protein skinhead-1): > 100 µM (inactive)

CSC1=NCCN1CCOc1ccccc1
IC50 [1]: 6.77 µM (active)
IC50 [2]: 8.19 µM (active)

CCCc1cc(C(=O)Nc2cc(Cl)ccc2O)no1
AC50 (HeLa): > 350 µM (inactive)

CCCCCCCCCCOC(=O)C[N+](C)(C)CC1CCCCC1O (stereo not drawn)
EC50 [3]: > 50 µM (active)

O=C1CCCC2=C1C(c1ccc(O)c(O)c1)Nc1ccc3ncccc3c12 (stereo not drawn)
IC50 [4]: 2.67 µM (active)

CCc1ccc(N2Cc3ccccc3C2)cc1
AC50 (HeLa): 43.5 µM (active)

Nc1cc(N2CCOCC2)c(Cl)cc1[N+](=O)[O-]
EC50 [3]: > 50 µM (active)

O=C(Nc1ccc(OC(F)F)c(Cl)c1)c1ccccn1
AC50 (HeLa): 99.7 µM (active)
IC50 (Protein skinhead-1): 51.6 µM (inactive)

O=C1Oc2ccccc2C(=O)/C1=C/c1ccccc1O
IC50 (Genome polyprotein): 25.2 µM (active)
IC50 [4]: 4.18 µM (active)

CCC(=O)OC1(C)C(=O)C2=COC(c3ccc(OC)cc3)=CC2=C(Br)C1=O (stereo not drawn)
AC50 [5]: 1.51 µM (active)
IC50 (Genome polyprotein): > 100 µM (active)
EC50 [6]: 31.5 µM (active)
EC50 [7]: 32.9 µM (active)

Cc1nn(CC(=O)Nc2ccc(N(C)C)cc2)c(C)c1[N+](=O)[O-]
IC50 [4]: 7.62 µM (not active)
IC50 (Large T antigen): 12.3 µM (active)

Clc1ccc(OCCCN2CCCC2)cc1Cl
EC50 [3]: > 50 µM (active)

Cc1ccc(N2C(=O)NC(=O)/C(=C/c3ccc(-c4ccc(C(=O)O)c(Cl)c4)o3)C2=O)cc1
IC50 [8]: 5.49 µM (active)
IC50 (Large T antigen): 32.7 µM (active)

Cc1ccc(N(Cc2cc3cccc(C)c3nc2O)S(=O)(=O)c2ccccc2)c(C)c1
IC50 [1]: 4.45 µM (active)
IC50 [2]: 5.56 µM (active)

CCCC(C)c1nnc(NC(=O)c2cc(C(=O)OC)cc([N+](=O)[O-])c2)s1 (stereo not drawn)
IC50 [9]: 19.6 µM (active)
IC50 (Fatty acid synthase): 7.04 µM (active)

Fc1ccccc1CSc1nc2cc(Br)c[nH]c-2n1
IC50 [10]: 83.3 µM (inactive)
EC50 [11]: 0.116 µM (active)
EC50 [12]: 89.7 µM (active)
EC50 (H4): 20.3 µM (active)

Fc1ccc(COc2ccc(-c3nnco3)cc2)cc1
IC50 (Protein skinhead-1): 5.67 µM (active)

O=C1CCCCC1C(=O)c1ccccc1 (stereo not drawn)
IC50 [4]: 0.719 µM (not active)

CCC(=O)Nc1ccc(-c2ccc(N3CCC(C)CC3)nn2)cc1
AC50 (HeLa): 146 µM (active)

COc1ccc2c(c1OC)C(=O)OC2Nc1nc(-c2cc3cc(Br)ccc3oc2=O)cs1 (stereo not drawn)
AC50 (HeLa): 290 µM (active)
CC50 [13]: 30.7 µM (active)

CCn1c(CNc2ccc(Cl)cc2)nnc1SCc1ccc(Cl)cc1
AC50 [5]: 5.01 µM (active)

COc1ccc(-n2c(C)cc(C(=O)C[N+]34CCN(CC3)CC4)c2C)cc1
IC50 [1]: 2.64 µM (active)
IC50 [2]: 2.73 µM (active)

O=C(Nc1ccc(F)cc1)c1ccc2snnc2c1
EC50 [3]: > 50 µM (active)

Cn1c(Cc2ccccc2)nnc1SCC(=O)Nc1ccc2c(c1)OCO2
IC50 (Protein skinhead-1): > 100 µM (inactive)

COc1ccccc1NC(=O)CN1CCC(c2nc3cc(C)ccc3[nH]2)CC1
EC50 [3]: > 50 µM (active)

COc1ccc2c(c1)[C@H]1[C@H](CO2)[C@H](c2ccccc2)[C@]2(C)C(=O)Nc3ccc(Br)cc3C(=O)N12
AC50 [5]: 1.59 µM (active)

CCC(=O)c1ccc(OCC(=O)Nc2cc(S(=O)(=O)N3CCCCC3)ccc2N2CCN(CC)CC2)cc1
IC50 [1]: 3.32 µM (active)
IC50 [2]: 5.31 µM (active)

Cc1cccc(N=C2c3cc([N+](=O)[O-])ccc3-c3c2cc([N+](=O)[O-])cc3[N+](=O)[O-])c1
AC50 [5]: 16.6 µM (active)
IC50 (Nonstructural protein 1): 11.7 µM (active)

O=C1C=CC(=Nc2ccc(F)cc2)O1
AC50 [5]: 2.25 µM (active)

Brc1ccc2nc(-c3ccccc3)c(Cc3ccsc3)n2c1
IC50 (Protein skinhead-1): > 100 µM (inactive)

Cn1c2ccccc2c2cc(/C=N/NC(=O)c3cc(O)cc(O)c3)ccc21
IC50 [1]: 16.2 µM (active)
CC50 [13]: 12.8 µM (active)
IC50 [2]: 41.6 µM (active)

C[C@H](NC(=O)C[C@@H]1C[C@@H]2c3cc(NC(=O)Nc4ccc(C(F)(F)F)cc4)ccc3O[C@@H]2[C@@H](CO)O1)c1ccccc1
AC50 [14]: 27.7 µM (active)
AC50 [15]: 37.9 µM (active)
AC50 (Paired box protein Pax-8): 13.2 µM (active)
AC50 [16]: 36.8 µM (active)
AC50 [17]: 20.6 µM (active)

C[C@@H]1CN([C@H](C)CO)C(=O)c2cc(NC(=O)Nc3ccc(C(F)(F)F)cc3)ccc2O[C@@H](C)CCCCO[C@H]1CN(C)S(=O)(=O)c1ccc(Cl)cc1
AC50 [15]: 26.3 µM (active)
AC50 (Paired box protein Pax-8): 2.41 µM (active)
AC50 [16]: > 70 µM (inactive)

COc1ccccc1-c1ccc2c(c1)[C@@H]1[C@@H](CCN1S(=O)(=O)c1ccccc1F)[C@H](CO)N2
AC50 [15]: 20.7 µM (active)
AC50 (Paired box protein Pax-8): 6.87 µM (active)

COc1ccc(C)c2s/c(=N\C(=O)c3ccc(C(C)=O)cc3)n(C)c12
AC50 (HeLa): 40.9 µM (active)

O=C(N/N=C/c1ccc(OCCCF)cc1)c1ccc(C(F)(F)F)cc1
IC50 [8]: 13.2 µM (active)
